Data taken from US12018027B2, “Macrocyclic derivatives acting as XIa factor inhibitor” (CHINA RESOURCES BIOPHARMACEUTICAL COMPANY LIMITED, priority 2019, dated 2024).

How the values were obtained:
human plasma = test: Human plasma in vitro aPTT (activated partial thromboplastin time); assay type: biochemical
Procedure: 2. Testing of Human Plasma in vitro aPTT (Activated Partial Thromboplastin Time)
To test the anticoagulant effect of the compounds disclosed herein against human plasma in vitro
1) Plasma: fresh human venous blood was mixed well with 0.109 M sodium citrate at a ratio of 9:1, and then the mixture was centrifuged at 3000 rpm for 15 min. The upper plasma was collected and tested within 2-5 h.
2) Reagents: aPTT reagent (activated partial thromboplastin time kit, mindray), PT reagent (prothrombin time kit, mindray), and calcium chloride solution.
3) Instruments: coagulometer (Beijing Precil, C2000-4).
Test compounds were each dissolved in DMSO to prepare a 10 mM stock solution. The plasma was serially diluted to 400 μM, 200 μM, 100 μM, 50 μM, 25 μM, 12.5 μM, 6.25 μM, 3.125 μM, 1.563 μM, 0.781 μM, 0.390 μM and 0.195 μM with the 10 mM stock solution of each compound, and the blank control was 100% DMSO. The reagents, plasma and compounds were placed at corresponding positions in a coagulometer to detect the aPTT and PT of the compounds.
The concentrations of compounds corresponding to aPTT2× and PT2× (i.e., aPTT and PT of 2-fold blank control) were calculated by Prism curve fitting and the results are shown in Table 2 below: […]

Human Factor XIa = Human Factor XIa (Homo sapiens (Human), UniProt P03951); test: Screening assay for inhibitory activity against enzyme hFXIa (human factor XIa); assay type: biochemical; conditions: substrate S-2366, pH 7.4, 37° C., absorbance 405 nm
Sequence of Human Factor XIa (P03951 388-625): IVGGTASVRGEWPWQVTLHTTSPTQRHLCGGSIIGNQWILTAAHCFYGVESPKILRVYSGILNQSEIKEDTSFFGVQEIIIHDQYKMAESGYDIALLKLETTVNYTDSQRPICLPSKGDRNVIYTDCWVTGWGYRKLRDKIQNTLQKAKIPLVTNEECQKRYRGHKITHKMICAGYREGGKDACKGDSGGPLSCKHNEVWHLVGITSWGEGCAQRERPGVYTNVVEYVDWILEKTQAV
Sequence of Human Factor XIa (P03951 19-387 partner): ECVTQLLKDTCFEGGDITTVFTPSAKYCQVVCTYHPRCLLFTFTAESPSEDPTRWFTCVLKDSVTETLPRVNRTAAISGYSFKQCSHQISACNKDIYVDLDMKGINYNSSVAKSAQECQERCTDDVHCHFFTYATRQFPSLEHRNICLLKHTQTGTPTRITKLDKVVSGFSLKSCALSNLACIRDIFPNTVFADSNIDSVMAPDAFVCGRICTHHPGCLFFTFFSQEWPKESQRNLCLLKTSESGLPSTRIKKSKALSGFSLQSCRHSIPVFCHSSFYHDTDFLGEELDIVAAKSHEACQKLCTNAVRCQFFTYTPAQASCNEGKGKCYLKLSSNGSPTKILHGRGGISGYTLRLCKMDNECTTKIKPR
Procedure: 1. Screening Assay for Inhibitory Activity against Enzyme hFXIa (Human Factor XIa)
To Test the Inhibitory Activity of the Compounds Disclosed herein Against Human Factor XIa
100 mM Tris-HCl (Sigma, Cat. No.: T2663, Lot No.: SLBG2775)
Enzyme: Human Factor XIa (Abcam, Cat No.: ab62411), total amount of 50 μg; dissolved in assay buffer and packaged.
3) Instruments and consumables
SpectraMax 340PC multifunctional microplate reader (Molecular Devices)
384-well black transparent reaction plate (Corning, Cat. No.: 3712)
Echo liquid workstation (Labcyte)
A 384-well polypropylene compound plate (Labcyte-P-05525) was used in Echo
A 384 shallow-well polypropylene compound plate (Labcyte-LP-0200, 2.5-12 μL) was used in Echo
Mutidrop automatic dispenser (Thermo Scientific)
Mutidrop consumables (Thermo Scientific-24073290)
Test compounds were each dissolved in DMSO to prepare a 10 mM solution and stored in a nitrogen cabinet.
1) Preparation for compounds
All test compounds were prepared using Echo, subjected to gradient dilution and transferred to a 384-well reaction plate at 100 nL. The reference compound and the test samples, with an initial concentration of 200 μM, were subjected to 3-fold dilution to get 10 concentrations (the final concentration was 1 μM). To high signal wells were added DMSO, and to low signal wells were added 100 μM reference compound. Reference can be made to the sample distribution for distributions of samples and control.
1) Preparation for enzyme human factor XIa
Enzyme human factor XIa was diluted to 0.5 μg/mL with assay buffer.
3) Preparation for substrate S-2306
S-2306 was prepared at a concentration of 1 mM using the assay buffer.
4) 10 μL of 0.5 μg/mL enzyme human factor XIa was added to the reaction plate using a Mutidrop automatic dispenser and the final concentration was 5 ng/well.
5) 10 μL of 1 mM S-2306 was added to the reaction plate using a Mutidrop automatic dispenser and the final concentration was 0.5 mM.
6) Centrifugation was performed at 1000 rpm for 10 s.
7) The reaction plate was incubated in SpectraMax 340PC at 37° C. for 10 min and the absorbance was measured at 405 nm.
8) Data were analyzed using GraphPad Prism 5.0.
% inhibition rate=100%×[1—(sample reading—mean of low signal wells)/(mean of high signal wells—mean of low signal wells)]
IC50 was analyzed using […]:
Y=Bottom+(Top−Bottom)/(1+10^((LogIC50−X)*Hill Slope))
Y is % inhibition rate and X is the logarithm of the sample concentration.

Pharmacokinetics in rats = assay type: in vivo; conditions: male SD rats
Procedure: 3. Pharmacokinetics in Rats
To determine the pharmacokinetic parameters of the compounds disclosed herein in rats
1) Experimental drug: compound 1-2;
2) Experimental animals: 4 male SD rats aged 7-9 weeks, randomly divided into 2 groups, 2 rats for each group;
3) Drug preparation: a proper amount of the drug was weighed out and dissolved in a mixed solvent of DMAC:solutol:water=10:10:80 to prepare two solutions of 0.2 mg/mL and 0.5 mg/mL, respectively;
Animals in group 1 were administered with the 0.2 mg/mL drug at a dose of 0.5 mg/kg by single injection via the tail vein, and animals in group 2 were administered with the 0.5 mg/mL compound at a dose of 3 mg/kg by gavage. Animal plasma samples were collected 0.0833 (only the tail vein injection group), 0.25, 0.5, 1, 2, 4, 6, 8 and 24 h after administration. The drug concentration in plasma samples was determined using LC-MS/MS method, and the kinetic parameters of the test drug are shown in Table 3: […]

Row | SMILES | IC50 (Human Factor XIa) [nM] | aPTT2× (concentration giving aPTT of 2-fold blank control) (human plasma) [µM] | further results
1 | C[C@@H]1CCC[C@@H](c2ccc(-c3cc(Cl)ccc3-n3ccnn3)oc2=O)c2cc(ccn2)-c2c(cnn2C(F)F)NC1=O [Compound 2-1] | 3.39 | 0.65 | –
2 | C[C@@H]1CCC[C@@H](c2ccc(-c3cc(Cl)ccc3-n3cc(Cl)nn3)n(C)c2=O)c2cc(ccn2)-c2c(cnn2C(F)F)NC1=O (single isomer, unassigned) [Compound 5-1] | 8.22 | – | –
3 | C[C@@H]1CCC[C@H](c2ccc(-c3cc(Cl)ccc3-n3ccnn3)oc2=O)c2cc(ccn2)-c2c(cnn2C(F)F)NC1=O [Compound 2-2] | 10.7 | – | –

Second part, led by results:

Row | IC50 (Human Factor XIa) [nM] | SMILES | aPTT2× (concentration giving aPTT of 2-fold blank control) (human plasma) [µM] | further results
4 | 34.1 | C[C@H]1CCC[C@@H](c2ccc(-c3cc(Cl)ccc3-n3cc(Cl)nn3)oc2=O)c2cc(ccn2)-c2c(cnn2C(F)F)NC1=O (single isomer, unassigned) [Compound 1-4] | – | –
5 | 21.7 | C[C@@H]1CCC[C@@H](c2ccc(-c3cc(Cl)ccc3-n3cc(C4CC4)nn3)oc2=O)c2cc(ccn2)-c2c(cnn2C(F)F)NC1=O (single isomer, unassigned) [Compound 4-1] | – | –
6 | 3.9 | C[C@@H]1CCC[C@@H](c2ccc(-c3cc(Cl)ccc3-n3cc(Cl)nn3)oc2=O)c2cc(ccn2)-c2c(cnn2C(F)F)NC1=O (single isomer, unassigned) [Compound 1-2] | 0.87 | Bioavailability F (Pharmacokinetics in rats; gavage 3 mg/kg vs tail vein injection 0.5 mg/kg): 37.1%; Area under curve AUC (Pharmacokinetics in rats; gavage, 3 mg/kg): 5.205 µM·h; Time of peak concentration T1/2 (Pharmacokinetics in rats; gavage, 3 mg/kg): 3 h; Cmax (Pharmacokinetics in rats; gavage, 3 mg/kg, read-out: Peak concentration Cmax): 0.986 µM; Area under curve AUC (Pharmacokinetics in rats; tail vein injection, 0.5 mg/kg): 2.339 µM·h; Clearance Cl (Pharmacokinetics in rats; tail vein injection, 0.5 mg/kg): 0.339 L/h/kg; Half life T1/2 (Pharmacokinetics in rats; tail vein injection, 0.5 mg/kg): 1.04 h; Volume of distribution Vd (Pharmacokinetics in rats; tail vein injection, 0.5 mg/kg): 0.533 L/kg; C0 (Pharmacokinetics in rats; tail vein injection, 0.5 mg/kg, read-out: Initial concentration C0): 1.8 µM
7 | 20.4 | CCOc1cn(-c2ccc(Cl)cc2-c2ccc([C@@H]3CCC[C@@H](C)C(=O)Nc4cnn(C(F)F)c4-c4ccnc3c4)c(=O)o2)nn1 (single isomer, unassigned) [Compound 6-2] | – | –
8 | 3.81 | C[C@@H]1CCC[C@@H](c2ccc(-c3cc(Cl)ccc3-n3cc(C(F)F)nn3)oc2=O)c2cc(ccn2)-c2c(cnn2C(F)F)NC1=O (single isomer, unassigned) [Compound 3-1] | 1.37 | –
